The subject of series [1] is A/Victoria/3/75 (H3N2) influenza virus. On the set-up: species or system BALB/c mice. To be noted: mouse, in vivo.
Series [2] relates to A/NWS/33 (H1N1) influenza virus. To be noted: mouse, in vivo.
Series [3] has as its target neuraminidase enzyme N9 from H1N9 virus (Influenza A virus, UniProt P03472). Kind of series: biochemical. To be noted: for IC90: read-out: IC90 against N9 enzyme. Set-up: species or system A/H1N9 (NWS/G70) avian virus.
Series [4] concerns the target N9 neuraminidase (Influenza A virus, UniProt P03472). Format: binding, A/H1N9 (NWS/G70) avian virus.
Series [5] has as its system influenza virus. On the set-up: species or system BALB/c mice. To be noted: mouse, in vivo.
The target in series [6] is H1N1 neuraminidase (UniProt P03470). To be noted: read-out: IC50 against H1N1; Bantia et al. 2001; cited from earlier work.
The test system of series [7] is influenza. To be noted: human, in vivo, po; cited from earlier work.

By IC50 is commonly meant the point on the concentration scale where inhibition reaches its midpoint. The IC90 is the concentration needed for an effect of 90%.

Like-named read-outs stand apart in the source and are kept apart here. Where only a bound is given, the exact number is not on record here.

neuraminidase enzyme N9 from H1N9 virus, sequence (P03472 whole entry, looked up): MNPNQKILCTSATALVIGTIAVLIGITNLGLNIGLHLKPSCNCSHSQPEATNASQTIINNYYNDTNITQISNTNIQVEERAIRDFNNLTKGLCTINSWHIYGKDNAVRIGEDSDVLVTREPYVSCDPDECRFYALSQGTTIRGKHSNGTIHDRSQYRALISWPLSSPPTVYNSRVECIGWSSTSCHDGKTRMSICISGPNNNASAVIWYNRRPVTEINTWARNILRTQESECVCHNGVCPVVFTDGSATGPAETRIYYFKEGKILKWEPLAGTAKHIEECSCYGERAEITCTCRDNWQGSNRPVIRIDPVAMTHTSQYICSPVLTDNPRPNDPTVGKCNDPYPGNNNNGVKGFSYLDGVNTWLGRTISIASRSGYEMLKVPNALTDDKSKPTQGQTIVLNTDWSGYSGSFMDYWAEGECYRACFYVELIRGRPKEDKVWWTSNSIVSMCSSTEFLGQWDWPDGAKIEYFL
N9 neuraminidase, sequence (P03472 whole entry, looked up): as above
H1N1 neuraminidase, sequence (P03470 whole entry, looked up): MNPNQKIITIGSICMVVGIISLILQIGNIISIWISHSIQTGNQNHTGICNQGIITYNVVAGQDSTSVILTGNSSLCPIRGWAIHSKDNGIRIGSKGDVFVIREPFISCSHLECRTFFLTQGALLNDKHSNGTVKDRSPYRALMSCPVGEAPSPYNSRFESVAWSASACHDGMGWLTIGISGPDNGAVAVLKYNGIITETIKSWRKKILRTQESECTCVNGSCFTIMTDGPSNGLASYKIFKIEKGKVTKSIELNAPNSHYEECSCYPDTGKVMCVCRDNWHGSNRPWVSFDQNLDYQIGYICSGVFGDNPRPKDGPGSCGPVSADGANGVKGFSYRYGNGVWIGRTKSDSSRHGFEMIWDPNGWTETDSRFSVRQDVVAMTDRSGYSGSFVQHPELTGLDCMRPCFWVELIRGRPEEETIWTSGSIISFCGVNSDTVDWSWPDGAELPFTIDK

As for `CCOC(=O)C1=C[C@@H](OC(CC)CC)[C@H](NC(C)=O)[C@@H](N)C1` [oseltamivir, reference compound], in series [1] (po), the “mean weight loss by day 8” value is listed as “about 5.1 g”; the “mean weight loss by day 8, % of weight” value turned out to be 28%; the “survived (protection against lethality)” value is on record as 9/10. Further, the survival rate in series [2] was found to be 10%. Further, in series [2] (10 mg/kg), the mice survived is on record as 3 out of 10; the “protection against lethality” value was 30%; the weight loss result is recorded as “about 4 g”; the “weight loss and mortality” value is “no efficacy”. Besides, the “weight loss, % of initial weight” value in series [2] (10 mg/kg) is 25 % of initial weight. Besides, the “greatest mean weight loss at day 8” value in series [2] (po, 2 mg/kg/day) came to 1.34 g. The “greatest mean weight loss at day 8” value in series [2] (po, 10 mg/kg/day) is recorded as 0 g.
On to `CCC(CC)C(NC(C)=O)[C@@H]1[C@H](O)[C@@H](C(=O)O)C[C@H]1NC(=N)N` (stereo partly drawn) [peramivir, (1S,2S,3R,4R)-3-(1-Acetamido-2-ethylbutyl)-4-guanidino-2-hydroxycyclopentane-carboxylic acid], for which, in series [3], the concentration for half-maximal inhibition (IC50) turned out to be 1.3 ± 0.4 nM and the concentration for an effect of 90% (IC90) stood at 5 nM. Further, in series [4], the “t1/2 of dissociation from N9 neuraminidase” value is above 24 h. Also, in series [1], the “mean weight loss by day 8” value is reported as 4.5 g; the “mean weight loss by day 8, % of weight” value came out at 25%; the “survived (protection against lethality)” value is recorded as 9/10. For the same compound, in series [5], the “effectiveness of delayed treatment” value was “highly effective”, the protection against lethality result was “complete protection against lethality” and the “weight loss by day 5” value is “no significant weight loss”. The “weight loss by day 5” value in series [5] (po) is “no significant weight loss”. In series [2], the “prevention of weight loss in infected mice” value is “effective in preventing weight loss”, the survival came to 40% and the survival rate stood at 50%. Moreover, in series [2] (1 mg/kg), the “effectiveness in terms of survival” value was “not effective” and the “mean days to death” value is on record as “significant increase”. Further, in series [2] (10 mg/kg), the “weight loss and mortality” value was “significantly reduced”; the “weight loss by day 5” value is reported as “no weight loss”; the “weight loss, % of initial weight” value is reported as “about 1.7 % of initial weight”. The “signs of drug-related toxicity” value in series [2] (20 mg/kg) is recorded as “No signs of drug-related toxicity”. The compound further returned a survival in series [2] (po, 1 mg/kg/day) of 60%. In addition, in series [2] (po, 10 mg/kg), the “weight loss by day 5” value came out at 0.22 g. Moreover, in series [2] (po, 10 mg/kg/day), the protection against lethality entry is listed as “Complete protection against lethality”. The IC50 in series [6] was 0.11 nM. The “inhibitory effect on influenza in humans” value in series [7] was “undesirably low inhibitory effect”.
Regarding `CC(=O)N[C@H]1[C@H]([C@H](O)[C@H](O)CO)OC(C(=O)O)=C[C@@H]1N=C(N)N` [zanamivir, reference compound], the IC90 in series [3] was found to be 10 nM. The “t1/2 of dissociation from N9 neuraminidase” value in series [4] was found to be 1.25 h.
